Test results from patent US20020088029A1, “Plant transformation methods” (priority 1998, published 2002).

Assays:
[1] = test system: maize embryos; assay: Inoculation of maize embryos with LBA4404 with or without silver nitrate, callus initiation; assay type: cell-based
Method: Inhibition of Agrobacterium-induced programmed cell death Preparation of tissues for inoculation with Agrobacterium: Immature embryos (1.2 to 2.2 mm in length) are aseptically excised 14-15 days after pollination from surface-sterilized, greenhouse-grown ears and plated scutellum up on callus initiation medium, 2DG4+5 mg/l chloramben (2DG4-5Chl).
Immature embryos are sterilized as described above and plated on callus initiation medium (2DG4-5Chl) and cultured therein for 1 to 7 days. The resulting tissue is used as samples for inoculation.
Agrobacterium is grown for 3 days on YP medium (5 g/l yeast extract, 10 g/l peptone, 5 g/l NaCl, 15 g/l agar, pH 6.8) supplemented with 50 mg/l spectinomycin and 10 mg/l tetracycline. Bacteria are collected with a loop and suspended in N6 liquid medium at a density ranging from 10^9 to 5 10^9 cells/ml. Agrobacterium cells can also be collected from an overnight culture in YP medium and resuspended in N6 liquid medium.
Maize tissues prepared as described above are inoculated with Agrobacterium. […] Tissues are also inoculated with a 5 μl drop 10^9 to 5×10^9 cells/ml of an Agrobacterium suspension placed on the top of the tissue.

[2] = test system: maize type I callus; assay: Inoculation of maize type I callus with or without silver nitrate, survival of tissues; assay type: cell-based; conditions: ½ month old type I callus, co-inoculation 2DG4 + AgNO3, transfer 2DG4 + AgNO3 + Cef, 2 weeks
[3] = test system: tobacco leaf discs; conditions: silver nitrate present during co-cultivation; LBA4404(GIGUP) 10^9 cells/ml
[4] = test system: cell line HE/89; assay: DNA fragmentation (DNA ladders) in maize cells inoculated with Agrobacterium; assay type: cell-based, Zea mays L.; conditions: HE/89 cells inoculated with Agrobacterium, agent added
Method: In order to determine the mechanism of cell death induced by Agrobacterium in maize tissues, genomic DNA is extracted from plant suspension cells harvested 24 or 48 hours after inoculation with Agrobacterium. Exposure to Agrobacterium causes DNA fragmentation in both maize lines, with a pattern characteristic of internucleosomal fragmentation, which is considered an early hallmark of programmed cell death. […] Furthermore, maize cells undergoing programmed cell death could not induce cell death of fresh maize embryogenic tissues.
Further evidence for Agrobacterium inducing DNA fragmentation is obtained by investigating the sensitivity of the process to Zn^2+ and Ca^2+. […] These characteristics are fully consistent with the effect of these divalent cations on the endogenous endonucleases responsible for DNA cleavage during apoptosis in animal system. The intensity of the ladder also is decreased by addition of cycloheximide, evidence that the process requires de novo gene expression. […] Fragmentation of DNA during apoptosis is also detected in situ by reagents that react with the exposed hydroxyls on the nucleosome units. 12 day old maize embryos from a proprietary elite line of Lancaster parentage are inoculated with LBA4404 and plated on DG4 medium supplemented with chloramben. Koziel, M.G., & al. 1993. Bio/Technology 11: 194-200. Apoptotic cells are detected by in situ staining with TACS-1 kit (Trevigen), which involves end labeling the DNA fragments by the klenow enzyme using dNTP conjugated to a detectable marker, giving a dark insoluble precipitate indicative of genomic fragmentation. Cullivier, O., Pirianov, G., Kleuser, B., Vanek, P.G., Coso, O.A., Gutking, J.S. and Spiegel, S. (1996) Nature 381, 800-803. Embryos are soaked in 3.7% formadehyde solution and processed as described by the manufacturer. To detect genomic DNA cleavage in situ, fixed embryos are treated with the TACS-1 kit. Fixed cross-sections are first treated with proteinase K for 5 min at room temperature and then dipped for 5 min into 2% hydrogen peroxide to remove endogenous peroxidase. […]

[5] = test system: HE/89 maize friable embryogenic callus
Method: The following experiments employ maize inbred lines (Zea mays L.) HE/89 and a line here designated as Elite 1. […] Suspension culture of Elite 1 is initiated from friable embryogenic callus selected from immature embryos. The HE/89 line is grown in a modified liquid N6 medium amended with 500 mg/l Bacto tryptone, 30 g/l sucrose and 0.5 mg/l 2,4-dichlorophenoxy acetic acid (2,4-D) (N6M). The Elite 1 line is grown in N6 liquid medium (Chu et al., 1975) supplemented with 30 g/l sucrose and 2 mg/l 2,4-D (2N63S). The Nicotiana tabacum cell line NT-1 grown in Murashige and Skoog medium supplemented with 2 mg/l of 2,4-D and sucrose (30 g/l) (MS3S) is used as an Agrobacterium-susceptible control. Suspension cultures are maintained in liquid medium on a rotary shaker (120 rpm) and are subcultured every 7 days.
Bacteria are grown in YP medium (5 g/L yeast extract, 10 g/l peptone, 5 g/l NaCl, pH 6.8) for 24 hr at 28° C. […]
Friable embryogenic callus of HE/89 maize and of a proprietary elite inbred maize maintained in liquid medium are incubated with Agrobacterium for 10 min, 1 hr, 24 hr or 48 hrs prior to transfer to cefotaxim-containing medium. […] The presence or absence of necrosis is scored 2, 4 and 7 days after inoculation and the relative intensity of necrosis is expressed as follow: +, rare formation of necrosis; ++, weak necrosis; +++, strong necrosis; ++++, very strong necrosis.

**Q.** Which “embryos able to produce embryogenic calli” value ([1]; embryos plated on medium containing silver nitrate after Agrobacterium inoculation) does the source give for `O=[N+]([O-])[O-].[Ag+]` [AgNO3, silver nitrate] here?
**A.** About 50%

**Q.** And the “Score (callus initiation)” value ([1]; no pretreatment, co-inoculation 2DG4, transfer 2DG4 + AgNO3 + Cef, LBA4404 (GIGUP) 10^9 cells/ml, two weeks after inoculation)?
**A.** 30%

**Q.** What about the “Score (survival of tissues)” value ([2]; pretreatment 2DG4 + AgNO3) of the same compound?
**A.** 95%

**Q.** What about the “Score (survival of tissues)” value ([2]; pretreatment 2DG4) of the same compound?
**A.** 75%

**Q.** And the “GUS activity in tobacco leaves (Agrobacterium virulence)” value [3]?
**A.** No significant decrease

**Q.** How did the “intensity of DNA ladders (genomic fragmentation)” value (“intensity of DNA ladders” below) [4] turn out when `[Zn+2]` [Zn^2+] was run?
**A.** markedly reduced genomic fragmentation

**Q.** Which “intensity of DNA ladders” value [4] does the source give for `C[C@@H]1C[C@@H]([C@H](O)CC2CC(=O)NC(=O)C2)C(=O)[C@@H](C)C1` [cycloheximide] here?
**A.** decreased

**Q.** Which “necrosis of maize tissue” value [5] does the source give for `CO/N=C(\C(=O)N[C@@H]1C(=O)N2C(C(=O)O)=C(COC(C)=O)CS[C@H]12)c1csc(N)n1` [cefotaxime] here?
**A.** does not cause the maize tissue to become necrotic

**Q.** For `[Ca+2]` [Ca^2+], which “intensity of DNA ladders” value [4] is on record?
**A.** increased the intensity of DNA ladders
